According to ChEMBL document CHEMBL3124855, “4'-Substituted pyrimidine nucleosides lacking 5'-hydroxyl function as potential anti-HCV agents” (Bioorg Med Chem Lett, 2014):

Tests used:
[1] = Selectivity index, ratio of CC50 for human HuH7 cells to EC50 for HCV subtype 1a; design: species or system Huh-7
Hepatitis C virus [2] = assay: Antiviral activity against HCV subtype 1a infected in Huh-7 cells assessed as reduction in viral RNA level at 84.4 uM after 8 to 10 days by quantitative PCR analysis; format: functional, Hepacivirus hominis
[3] = Cytotoxicity against human HuH7 cells after 2 days by XTT assay; format: cell-based, Huh-7
Hepatitis C virus [4] = assay: Antiviral activity against HCV subtype 1a infected in Huh-7 cells assessed as reduction in viral RNA level at 69.4 uM after 8 to 10 days by quantitative PCR analysis; format: functional, Hepacivirus hominis
Hepatitis C virus [5] = assay: Antiviral activity against HCV subtype 1a infected in Huh-7 cells assessed as reduction in viral RNA level after 8 to 10 days by quantitative PCR analysis; format: functional, organism-based, Hepacivirus hominis
Hepatitis C virus [6] = assay: Antiviral activity against HCV subtype 1a infected in Huh-7 cells assessed as reduction in viral RNA level at 75.2 uM after 8 to 10 days by quantitative PCR analysis; format: functional, Hepacivirus hominis
Hepatitis C virus [7] = assay: Antiviral activity against HCV subtype 1a infected in Huh-7 cells assessed as reduction in viral RNA level at 71.4 uM after 8 to 10 days by quantitative PCR analysis; format: functional, Hepacivirus hominis
Hepatitis C virus [8] = assay: Antiviral activity against HCV subtype 1a infected in Huh-7 cells assessed as reduction in viral RNA level at 69.7 uM after 8 to 10 days by quantitative PCR analysis; format: functional, Hepacivirus hominis
Hepatitis C virus [9] = assay: Antiviral activity against HCV subtype 1a infected in Huh-7 cells assessed as reduction in viral RNA level at 79.4 uM after 8 to 10 days by quantitative PCR analysis; format: functional, Hepacivirus hominis
Hepatitis C virus [10] = assay: Antiviral activity against HCV subtype 1a infected in Huh-7 cells assessed as reduction in viral RNA level at 83.3 uM after 8 to 10 days by quantitative PCR analysis; format: functional, Hepacivirus hominis
Hepatitis C virus [11] = assay: Antiviral activity against HCV subtype 1a infected in Huh-7 cells assessed as reduction in viral RNA level at 35.6 uM after 8 to 10 days by quantitative PCR analysis; format: functional, Hepacivirus hominis
Hepatitis C virus [12] = assay: Antiviral activity against HCV subtype 1a infected in Huh-7 cells assessed as reduction in viral RNA level at 67.7 uM after 8 to 10 days by quantitative PCR analysis; format: functional, Hepacivirus hominis
Hepatitis C virus [13] = assay: Antiviral activity against HCV subtype 1a infected in Huh-7 cells assessed as reduction in viral RNA level at 33.1 uM after 8 to 10 days by quantitative PCR analysis; format: functional, Hepacivirus hominis
Hepatitis C virus [14] = assay: Antiviral activity against HCV subtype 1a infected in Huh-7 cells assessed as reduction in viral RNA level at 66.2 uM after 8 to 10 days by quantitative PCR analysis; format: functional, Hepacivirus hominis
Hepatitis C virus [15] = assay: Antiviral activity against HCV subtype 1a infected in Huh-7 cells assessed as reduction in viral RNA level at 33.1 uM after 8 to 10 days by quantitative PCR analysis in presence of ribavirin; format: functional, Hepacivirus hominis
Hepatitis C virus [16] = assay: Antiviral activity against HCV subtype 1a infected in Huh-7 cells assessed as reduction in viral RNA level at 69.6 uM after 8 to 10 days by quantitative PCR analysis; format: functional, Hepacivirus hominis
Hepatitis C virus [17] = assay: Antiviral activity against HCV subtype 1a infected in Huh-7 cells assessed as reduction in viral RNA level at 72.9 uM after 8 to 10 days by quantitative PCR analysis; format: functional, Hepacivirus hominis
Hepatitis C virus [18] = assay: Antiviral activity against HCV subtype 1a infected in Huh-7 cells assessed as reduction in viral RNA level at 81.9 uM after 8 to 10 days by quantitative PCR analysis; format: functional, Hepacivirus hominis
Hepatitis C virus [19] = assay: Antiviral activity against HCV subtype 1a infected in Huh-7 cells assessed as reduction in viral RNA level at 41 uM after 8 to 10 days by quantitative PCR analysis; format: functional, Hepacivirus hominis

Compound | Ratio CC50/EC50 [1] | CC50 at 48 h [3] [µM] | EC50 (Hepatitis C virus [5]) [µM] | further results
Cc1cn([C@H]2CC=C(C(N)=O)O2)c(=O)[nH]c1=O | >10 | > 1060 |  | inhibition at 84.4 µM (Hepatitis C virus [2]): 20%
COC(=O)[C@H]1O[C@@H](n2cc(C)c(=O)[nH]c2=O)[C@H](F)[C@@H]1O | >10 | > 868 | 43.4 | inhibition at 69.4 µM (Hepatitis C virus [4]): 56%
[N-]=[N+]=N[C@H]1C[C@H](n2ccc(=O)[nH]c2=O)O[C@@H]1C(N)=O | >10 | > 940 |  | inhibition at 75.2 µM (Hepatitis C virus [6]): 10%
Cc1cn([C@H]2C[C@H](N=[N+]=[N-])[C@@H](C(N)=O)O2)c(=O)[nH]c1=O | >10 | > 893 |  | inhibition at 71.4 µM (Hepatitis C virus [7]): 10%
CCc1cn([C@@H]2O[C@H](C(N)=O)[C@@H](O)[C@@H]2F)c(=O)[nH]c1=O | >10 | > 871 |  | inhibition at 69.7 µM (Hepatitis C virus [8]): 20%
COC(=O)[C@@H]1C=C[C@H](n2cc(C)c(=O)[nH]c2=O)O1 | >10 | > 992 | 49.6 | inhibition at 79.4 µM (Hepatitis C virus [9]): 58%
COC(=O)C1=CC[C@H](n2cc(C)c(=O)[nH]c2=O)O1 | >10 | > 992 | 79.4 | inhibition at 79.4 µM (Hepatitis C virus [9]): 50%
COC(=O)[C@@H]1CC[C@H](n2ccc(=O)[nH]c2=O)O1 | >10 | > 1040 |  | inhibition at 83.3 µM (Hepatitis C virus [10]): 0%
COC(=O)[C@H]1O[C@@H](n2ccc(=O)[nH]c2=O)C[C@@H]1N=[N+]=[N-] | >10 | > 890 | 35.6 | inhibition at 35.6 µM (Hepatitis C virus [11]): 54%
COC(=O)[C@H]1O[C@@H](n2cc(C)c(=O)[nH]c2=O)C[C@@H]1N=[N+]=[N-] | >10 | > 847 | 33.9 | inhibition at 67.7 µM (Hepatitis C virus [12]): 60%
CCc1cn([C@@H]2O[C@H](C(=O)OC)[C@@H](O)[C@@H]2F)c(=O)[nH]c1=O | >10 | > 829 | 33.1 | inhibition at 33.1 µM (Hepatitis C virus [13]): 50%; inhibition at 66.2 µM (Hepatitis C virus [14]): 65%; fractional inhibitory concentration index (FICI) (Hepatitis C virus [15]): 0.3
COC(=O)[C@H]1O[C@@H](n2ccc(=O)[nH]c2=O)[C@H](OC)[C@@H]1O | >10 | > 874 | 69.6 | inhibition at 69.6 µM (Hepatitis C virus [16]): 53%
COC(=O)[C@H]1O[C@@H](n2cc(C)c(=O)[nH]c2=O)C[C@@H]1Cl | >10 | > 868 | 43.4 | inhibition at 69.4 µM (Hepatitis C virus [4]): 58%
COC(=O)[C@H]1O[C@@H](n2ccc(=O)[nH]c2=O)[C@H](F)[C@@H]1O | >10 | > 912 | > 72.9 | inhibition at 72.9 µM (Hepatitis C virus [17]): 43%
NC(=O)c1ncn([C@@H]2O[C@H](CO)[C@@H](O)[C@H]2O)n1 [RIBAVIRIN] | >10 |  |  | inhibition at 81.9 µM (Hepatitis C virus [18]): 50%; inhibition at 41 µM (Hepatitis C virus [19]): 32%
